The values that follow come from patent US6376526B1, “Triazole antifungal agents” (Pfizer Inc., priority 1996, dated 2002).

One series deals with Candida albicans. Put plainly: in vivo activity against acute systemic candidosis in immune-normal mice. The conditions noted are these: dose protecting 50% of mice on day 2 post-infection; mice infected i.v. with Candida albicans; oral dosing 1, 4 and 24 hours post-infection. From the text:
The in vivo evaluation of the compounds can be carried out at a series of dose levels by intraperitoneal or intravenous injection, or by oral administration, to mice or rats which are inoculated with, e.g. a strain of Candida albicans, Aspergillus fumigatus or Cryptococcus neoformans. Activity may be based on the number of survivors from a treated group of mice after the death of an untreated group of mice.
For Candida spp. infection models the dose level at which the compound provides 50% protection against the lethal effect of the infection (PD50) is also assessed.
The Table below illustrates the in vivo activity against acute systemic candidosis in immune-normal mice for a selection of the compounds of the invention.
Mice were infected intravenously with Candida albicans in order to establish a systemic infection (all untreated control mice died by 2 days post-infection). Compound efficacy was assessed on the basis of survival after oral dosing (0.1-5 mg/kg; 1, 4 and 24 hours post-infection) and was measured as the dose protecting 50% of mice on day 2 post-infection.

A short description of series [1]: 7-day toxicity study in rats. The series is classed as in vivo. To be noted: 30 mg/kg p.o., o.d., 7 days.

`C[C@@H](c1ccc(/C=C/n2ccnc2)cc1)[C@](O)(Cn1cncn1)c1ccc(F)cc1F` (relative stereo) [Example 5, Trans-(2R,3S/2S,3R)-1-(1,2,4-triazol-1-yl)-2-(2,4-difluorophenyl)-3-{4-[2-(imidazol-1-yl)ethenyl]phenyl}butan-2-ol] came in with a PD50 in the series with Candida albicans of 0.18 mg/kg.

As to `C[C@@H](c1ccc(/C=C/C(C)(C)O)cn1)[C@](O)(Cn1cncn1)c1ccc(F)cc1F` (relative stereo) [Example 9, Trans-(2R,3S/2S,3R)-1-(1,2,4-triazol-1-yl)-2-(2,4-difluorophenyl)-3-[5-{3-hydroxy-3-methylbut-1-en-1-yl}pyrid-2-yl]butan-2-ol], in the series with Candida albicans, the PD50 is 0.18 mg/kg.

As to `C[C@@H](c1ccc(/C=C/c2c[nH]nn2)cn1)[C@](O)(Cn1cncn1)c1ccc(F)cc1F` (relative stereo) [Example 10, Trans-(2R,3S/2S,3R)-1-(1,2,4-triazol-1-yl)-2-(2,4-difluorophenyl)-3-{5-[2-(1,2,3-triazol-4-yl)ethenyl]pyrid-2-yl}butan-2-ol], the PD50 with Candida albicans was 0.32 mg/kg.

Consider `C[C@@H](c1ccc(/C=C/c2ccnn2C)cc1)[C@](O)(Cn1cncn1)c1ccc(F)cc1F` [Example 1, Trans-(2R,3S)-1-(1,2,4-triazol-1-yl)-2-(2,4-difluorophenyl)-3-{4-[2-(1methylpyrazol-5-yl)ethenyl]phenyl}butan-2-ol], for which the “adverse effects in 7-day toxicity study” value in series [1] is recorded as “no adverse effects”. This compound yielded a PD50 with Candida albicans of less than 0.10 mg/kg.
